# Data as given in US10765114B2, “4-amino-6-(pyridyl and 2-substitutedphenyl)-picolinates and 6-amino-2-(pyridyl and 2-substitutedphenyl)-pyrimidine-4-carboxylates and their use as herbicides” (Dow AgroSciences LLC, priority 2013, dated 2020).
# Like-named read-outs stand apart in the source and are kept apart here.
# What was measured:
# [1] = tested on: Key Grass and Sedge Weeds as well as Grass Crops; assay: Post-Emergent Test II (Table 6); format: in vivo; conditions: post-emergence, 336 h, 14 days after application; for pest or weed control at 70 g/ha: 70 g ai/ha; for pest or weed control at 140 g/ha: 140 g ai/ha
# Summary of the method: (§1)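 Visual injury ratings (0 = no injury, 100 = complete kill) were taken 14 days after treatment relative to untreated plants. Seedlings at the first or second true leaf stage received an overhead spray at 187 L/ha, and solvent-blank sprayed plants served as controls.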
# [2] = tested on: Key Broadleaf Weed and Crop Species; assay: Post-Emergent Test II (Table 5); format: in vivo; conditions: post-emergence, 336 h; for pest or weed control at 70 g/ha: application rate 70 (kg ai/ha; footnote: g ai/ha); for pest or weed control at 140 g/ha: application rate 140 (kg ai/ha; footnote: g ai/ha)
# Summary of the method: as §1
# [3] = CYPSS, read-out: Visual Growth Reduction (%) 14 Days After Application CYPSS
# [4] = DIGSA: crabgrass (Digitaria sanguinalis), read-out: Visual Growth Reduction (%) 14 Days After Application DIGSA
# [5] = ECHSS, read-out: Visual Growth Reduction (%) 14 Days After Application ECHSS
# [6] = ORYSS (crop), read-out: Visual Growth Reduction (%) 14 Days After Application ORYSS
# [7] = SETFA: giant foxtail (Setaria faberi), read-out: Visual Growth Reduction (%) 14 Days After Application SETFA
# [8] = SORVU: grain sorghum (Sorghum vulgare), read-out: Visual Growth Reduction (%) 14 Days After Application SORVU
# [9] = TRZSS (crop), read-out: Visual Growth Reduction (%) 14 Days After Application TRZSS
# [10] = ZEAMX: maize, corn (Zea mays), read-out: Visual Growth Reduction (%) 14 Days After Application ZEAMX
# [11] = Abutilon theophrasti, ABUTH: velvetleaf (Abutilon theophrasti), read-out: Visual Growth Reduction (%) 14 Days After Application ABUTH
# [12] = Amaranthus retroflexus, AMARE: redroot pigweed (Amaranthus retroflexus), read-out: Visual Growth Reduction (%) 14 Days After Application AMARE
# [13] = Brassica napus, BRSSS: oilseed rape, canola (Brassica napus), read-out: Visual Growth Reduction (%) 14 Days After Application BRSSS
# [14] = Chenopodium album, CHEAL: lambsquarters (Chenopodium album), read-out: Visual Growth Reduction (%) 14 Days After Application CHEAL
# [15] = Euphorbia heterophylla, EPHHL: wild poinsettia (Euphorbia heterophylla), read-out: Visual Growth Reduction (%) 14 Days After Application EPHHL
# [16] = Helianthus annuus, HELAN: sunflower (Helianthus annuus), read-out: Visual Growth Reduction (%) 14 Days After Application HELAN
# [17] = Viola tricolor, VIOTR: wild pansy (Viola tricolor), read-out: Visual Growth Reduction (%) 14 Days After Application VIOTR
structure (smiles),measurement,setting,value
COC(=O)c1nc(-c2ccc(Cl)c(F)c2OC)cc(N)c1Cl [Compound 20],pest or weed control at 70 g/ha,[1]; [3],30 to 44%
same,pest or weed control at 140 g/ha,[1]; [3],45 to 59%
same,pest or weed control at 70 g/ha,[1]; [4],0 to 29%
same,pest or weed control at 140 g/ha,[1]; [4],45 to 59%
same,pest or weed control at 70 g/ha,[1]; [5],60 to 74%
same,pest or weed control at 140 g/ha,[1]; [5],75 to 84%
same,pest or weed control at 70 g/ha,[1]; [6],0 to 29%
same,pest or weed control at 140 g/ha,[1]; [6],0 to 29%
same,pest or weed control at 70 g/ha,[1]; [7],30 to 44%
same,pest or weed control at 140 g/ha,[1]; [7],60 to 74%
same,pest or weed control at 70 g/ha,[1]; [8],0 to 29%
same,pest or weed control at 140 g/ha,[1]; [8],30 to 44%
same,pest or weed control at 70 g/ha,[1]; [9],0 to 29%
same,pest or weed control at 140 g/ha,[1]; [9],30 to 44%
same,pest or weed control at 70 g/ha,[1]; [10],85 to 94%
same,pest or weed control at 140 g/ha,[1]; [10],85 to 94%
same,pest or weed control at 70 g/ha,[2]; [11],95 to 100%
same,pest or weed control at 140 g/ha,[2]; [11],95 to 100%
same,pest or weed control at 70 g/ha,[2]; [12],95 to 100%
same,pest or weed control at 140 g/ha,[2]; [12],95 to 100%
same,pest or weed control at 70 g/ha,[2]; [13],95 to 100%
same,pest or weed control at 140 g/ha,[2]; [13],95 to 100%
same,pest or weed control at 70 g/ha,[2]; [14],95 to 100%
same,pest or weed control at 140 g/ha,[2]; [14],95 to 100%
same,pest or weed control at 70 g/ha,[2]; [15],0 to 29%
same,pest or weed control at 140 g/ha,[2]; [15],0 to 29%
same,pest or weed control at 70 g/ha,[2]; [16],85 to 94%
same,pest or weed control at 140 g/ha,[2]; [16],95 to 100%
same,pest or weed control at 70 g/ha,[2]; [17],95 to 100%
same,pest or weed control at 140 g/ha,[2]; [17],95 to 100%
"COC(=O)c1nc(-c2ccc(Br)nc2)c(F)c(N)c1Cl [Compound 22, methyl 4-amino-6′-bromo-5-chloro-3-fluoro-[2,3′-bipyridine]-6-carboxylate]",pest or weed control at 70 g/ha,[1]; [3],95 to 100%
same,pest or weed control at 140 g/ha,[1]; [3],95 to 100%
same,pest or weed control at 70 g/ha,[1]; [4],85 to 94%
same,pest or weed control at 140 g/ha,[1]; [4],85 to 94%
same,pest or weed control at 70 g/ha,[1]; [5],85 to 94%
same,pest or weed control at 140 g/ha,[1]; [5],95 to 100%
same,pest or weed control at 70 g/ha,[1]; [6],30 to 44%
same,pest or weed control at 140 g/ha,[1]; [6],0 to 29%
same,pest or weed control at 70 g/ha,[1]; [7],85 to 94%
same,pest or weed control at 140 g/ha,[1]; [7],85 to 94%
same,pest or weed control at 70 g/ha,[1]; [8],95 to 100%
same,pest or weed control at 140 g/ha,[1]; [8],95 to 100%
same,pest or weed control at 70 g/ha,[1]; [9],85 to 94%
same,pest or weed control at 140 g/ha,[1]; [9],95 to 100%
same,pest or weed control at 70 g/ha,[1]; [10],85 to 94%
same,pest or weed control at 140 g/ha,[1]; [10],95 to 100%
same,pest or weed control at 70 g/ha,[2]; [11],95 to 100%
same,pest or weed control at 140 g/ha,[2]; [11],95 to 100%
same,pest or weed control at 70 g/ha,[2]; [12],95 to 100%
same,pest or weed control at 140 g/ha,[2]; [12],95 to 100%
same,pest or weed control at 70 g/ha,[2]; [13],95 to 100%
same,pest or weed control at 140 g/ha,[2]; [13],95 to 100%
same,pest or weed control at 70 g/ha,[2]; [14],95 to 100%
same,pest or weed control at 140 g/ha,[2]; [14],95 to 100%
same,pest or weed control at 70 g/ha,[2]; [15],95 to 100%
same,pest or weed control at 140 g/ha,[2]; [15],95 to 100%
same,pest or weed control at 70 g/ha,[2]; [16],85 to 94%
same,pest or weed control at 140 g/ha,[2]; [16],95 to 100%
same,pest or weed control at 70 g/ha,[2]; [17],95 to 100%
same,pest or weed control at 140 g/ha,[2]; [17],95 to 100%
"COC(=O)c1nc(-c2ccc(I)c(F)c2C)cc(N)c1Cl [Compound 25, methyl 4-amino-3-chloro-6-(3-fluoro-4-Iodo-2-methylphenyl)picolinate]",pest or weed control at 70 g/ha,[1]; [3],0 to 29%
same,pest or weed control at 140 g/ha,[1]; [3],0 to 29%
same,pest or weed control at 70 g/ha,[1]; [4],0 to 29%
same,pest or weed control at 140 g/ha,[1]; [4],0 to 29%
same,pest or weed control at 70 g/ha,[1]; [5],0 to 29%
same,pest or weed control at 140 g/ha,[1]; [5],0 to 29%
same,pest or weed control at 70 g/ha,[1]; [6],0 to 29%
same,pest or weed control at 140 g/ha,[1]; [6],0 to 29%
same,pest or weed control at 70 g/ha,[1]; [7],0 to 29%
same,pest or weed control at 140 g/ha,[1]; [7],0 to 29%
same,pest or weed control at 70 g/ha,[1]; [8],0 to 29%
same,pest or weed control at 140 g/ha,[1]; [8],0 to 29%
same,pest or weed control at 70 g/ha,[1]; [9],0 to 29%
same,pest or weed control at 140 g/ha,[1]; [9],0 to 29%
same,pest or weed control at 70 g/ha,[1]; [10],0 to 29%
same,pest or weed control at 140 g/ha,[1]; [10],0 to 29%
same,pest or weed control at 70 g/ha,[2]; [11],95 to 100%
same,pest or weed control at 140 g/ha,[2]; [11],95 to 100%
same,pest or weed control at 70 g/ha,[2]; [12],95 to 100%
same,pest or weed control at 140 g/ha,[2]; [12],95 to 100%
same,pest or weed control at 70 g/ha,[2]; [13],60 to 74%
same,pest or weed control at 140 g/ha,[2]; [13],75 to 84%
same,pest or weed control at 70 g/ha,[2]; [14],85 to 94%
same,pest or weed control at 140 g/ha,[2]; [14],85 to 94%
same,pest or weed control at 70 g/ha,[2]; [15],0 to 29%
same,pest or weed control at 140 g/ha,[2]; [15],0 to 29%
same,pest or weed control at 70 g/ha,[2]; [16],60 to 74%
same,pest or weed control at 140 g/ha,[2]; [16],75 to 84%
same,pest or weed control at 70 g/ha,[2]; [17],0 to 29%
same,pest or weed control at 140 g/ha,[2]; [17],0 to 29%
